Laboratory results reported in ChEMBL document CHEMBL6153155, “Novel Cyclohexyl Amido Acid Antagonists of Lysophosphatidic Acid Type 1 Receptor for the Treatment of Pulmonary Fibrosis” (ACS Med Chem Lett, 2025).
pIC50: −log10 of the molar value. In brackets after ≈: the same amount, converted by molar mass. One block for each molecule: values may come before it.

Legend:
[1] = molecular target: Lysophosphatidic acid receptor 1 (Homo sapiens, UniProt Q92633); test: Antagonist activity at human LPA1 expressed in CHO cells incubated for 30 mins by FLIPR-based calcium mobilization assay
[2] = Lipophilicity, logD of compound at pH 7.4 by chromatographic hydrophobicity index method; assay type: physicochemical; conditions: buffer
[3] = Metabolic stability in female C57BL/6J mouse liver microsomes assessed as intrinsic clearance measured per mg of protein at 0.5 uM measured upto 45 mins in presence of NADPH regenerating system by HPLC-MS/MS analysis; assay type: ADME, Microsome; conditions: read-out: CLH
[4] = Metabolic stability in human liver microsomes assessed as intrinsic clearance measured per mg of protein at 0.5 uM measured upto 45 mins in presence of NADPH regenerating system by HPLC-MS/MS analysis; assay type: ADME, Microsome; conditions: read-out: CLH
[5] = molecular target: BSEP (Homo sapiens, UniProt O95342); test: Inhibition of BSEP in cryopreserved sandwich-cultured human hepatocytes by measuring reduction in TCA biliary clearance using taurocholic acid as substrate at 50 uM relative to control; assay type: cell-based, Hepatocyte; conditions: cryopreserved sandwich-cultured hepatocytes, probe taurocholic acid
[6] = molecular target: Lysophosphatidic acid receptor 1 (Mus musculus, UniProt P61793); test: Antagonist activity at mouse LPA1 transfected in human HeLa cells incubated for 30 mins by FLIPR-based calcium mobilization assay; assay type: cell-based
[7] = Aqueous solubility of the compound at pH 7.4; assay type: physicochemical; conditions: buffer
[8] = molecular target: Bile salt export pump (Homo sapiens, UniProt O95342); test: Inhibition of BSEP in cryopreserved sandwich-cultured human hepatocytes by measuring reduction in TCA biliary clearance using taurocholic acid as substrate; assay type: cell-based, Hepatocyte
[9] = system: Mus musculus; test: Inhibition of LPA-stimulated histamine release in male CD1 mouse plasma assessed as effective dose administered as po dose pretreated for 30 mins followed by LPA addition measured after 2 mins by enzyme immunoassay; assay type: functional; conditions: 32 min
[10] = Antiproliferative activity against LPA treated human HLF cells preincubated for 1 hr followed by LPA stimulation and measured after 24 hrs by BrdU assay; conditions: read-out: pIC50 (converted)
[11] = Clearance in female C57BL/6J mouse at 2 mg/kg, iv measured after 24 hrs by UPLC-MS/MS analysis; assay type: ADME, organism-based; conditions: in vivo
[12] = Volume of distribution at steady state in female C57BL/6J mouse at 2 mg/kg, iv measured after 24 hrs by UPLC-MS/MS analysis; assay type: ADME, organism-based; conditions: in vivo, read-out: Vdss
[13] = Oral bioavailability in female C57BL/6J mouse at 2 mg/kg, iv measured after 24 hrs by UPLC-MS/MS analysis; assay type: ADME, organism-based; conditions: in vivo
[14] = Half life in female C57BL/6J mouse at 2 mg/kg, iv measured after 24 hrs by UPLC-MS/MS analysis; assay type: ADME, organism-based; conditions: in vivo
[15] = Total Cmax in female C57BL/6J mouse plasma at 30 mg/kg, po measured after 24 hrs by UPLC-MS/MS analysis; assay type: ADME, organism-based
[16] = Unbound Cmax in female C57BL/6J mouse plasma at 30 mg/kg, po measured after 24 hrs by UPLC-MS/MS analysis; assay type: ADME, organism-based; conditions: in vivo
[17] = Total AUClast in female C57BL/6J mouse plasma at 30 mg/kg, po measured after 24 hrs by UPLC-MS/MS analysis; assay type: ADME, organism-based; conditions: in vivo
[18] = Unbound AUClast in female C57BL/6J mouse plasma at 30 mg/kg, po measured after 24 hrs by UPLC-MS/MS analysis; assay type: ADME, organism-based; conditions: in vivo
[19] = Tlast in female C57BL/6J mouse plasma at 30 mg/kg, po measured after 24 hrs by UPLC-MS/MS analysis; assay type: ADME, organism-based; conditions: in vivo
[20] = Total Cmax in female C57BL/6J mouse lung at 30 mg/kg, po measured after 24 hrs by UPLC-MS/MS analysis; assay type: ADME, organism-based
[21] = Unbound Cmax in female C57BL/6J mouse lung at 30 mg/kg, po measured after 24 hrs by UPLC-MS/MS analysis; assay type: ADME, organism-based; conditions: in vivo
[22] = Total AUClast in female C57BL/6J mouse lung at 30 mg/kg, po measured after 24 hrs by UPLC-MS/MS analysis; assay type: ADME, organism-based; conditions: in vivo
[23] = Unbound AUClast in female C57BL/6J mouse lung at 30 mg/kg, po measured after 24 hrs by UPLC-MS/MS analysis; assay type: ADME, organism-based; conditions: in vivo
[24] = Tlast in female C57BL/6J mouse lung at 30 mg/kg, po measured after 24 hrs by UPLC-MS/MS analysis; assay type: ADME, organism-based; conditions: in vivo
[25] = molecular target: Phosphatidylcholine translocator ABCB4 (Homo sapiens, UniProt P21439); test: Inhibition of MDR3 in human hepatocytes in the presence of TCA incubated for 3 hrs by LC-MS/MS; assay type: cell-based, Hepatocyte
[26] = molecular target: ATP-binding cassette sub-family C member 2 (Homo sapiens, UniProt Q92887); test: Inhibition of MRP2 (unknown origin) in presence of ATP by membrane vesicular transport assay; assay type: cell membranes, Membrane vesicle
[27] = molecular target: ATP-binding cassette sub-family C member 3 (Homo sapiens, UniProt O15438); test: Inhibition of MRP3 (unknown origin) in presence of ATP by membrane vesicular transport assay; assay type: cell membranes, Membrane vesicle
[28] = molecular target: T1, ATP-binding cassette sub-family C member 4 (Homo sapiens, UniProt O15439); test: Inhibition of MRP4 (unknown origin) in presence of ATP by membrane vesicular transport assay; assay type: cell membranes, Membrane vesicle
T1 sequence (O15439 whole entry): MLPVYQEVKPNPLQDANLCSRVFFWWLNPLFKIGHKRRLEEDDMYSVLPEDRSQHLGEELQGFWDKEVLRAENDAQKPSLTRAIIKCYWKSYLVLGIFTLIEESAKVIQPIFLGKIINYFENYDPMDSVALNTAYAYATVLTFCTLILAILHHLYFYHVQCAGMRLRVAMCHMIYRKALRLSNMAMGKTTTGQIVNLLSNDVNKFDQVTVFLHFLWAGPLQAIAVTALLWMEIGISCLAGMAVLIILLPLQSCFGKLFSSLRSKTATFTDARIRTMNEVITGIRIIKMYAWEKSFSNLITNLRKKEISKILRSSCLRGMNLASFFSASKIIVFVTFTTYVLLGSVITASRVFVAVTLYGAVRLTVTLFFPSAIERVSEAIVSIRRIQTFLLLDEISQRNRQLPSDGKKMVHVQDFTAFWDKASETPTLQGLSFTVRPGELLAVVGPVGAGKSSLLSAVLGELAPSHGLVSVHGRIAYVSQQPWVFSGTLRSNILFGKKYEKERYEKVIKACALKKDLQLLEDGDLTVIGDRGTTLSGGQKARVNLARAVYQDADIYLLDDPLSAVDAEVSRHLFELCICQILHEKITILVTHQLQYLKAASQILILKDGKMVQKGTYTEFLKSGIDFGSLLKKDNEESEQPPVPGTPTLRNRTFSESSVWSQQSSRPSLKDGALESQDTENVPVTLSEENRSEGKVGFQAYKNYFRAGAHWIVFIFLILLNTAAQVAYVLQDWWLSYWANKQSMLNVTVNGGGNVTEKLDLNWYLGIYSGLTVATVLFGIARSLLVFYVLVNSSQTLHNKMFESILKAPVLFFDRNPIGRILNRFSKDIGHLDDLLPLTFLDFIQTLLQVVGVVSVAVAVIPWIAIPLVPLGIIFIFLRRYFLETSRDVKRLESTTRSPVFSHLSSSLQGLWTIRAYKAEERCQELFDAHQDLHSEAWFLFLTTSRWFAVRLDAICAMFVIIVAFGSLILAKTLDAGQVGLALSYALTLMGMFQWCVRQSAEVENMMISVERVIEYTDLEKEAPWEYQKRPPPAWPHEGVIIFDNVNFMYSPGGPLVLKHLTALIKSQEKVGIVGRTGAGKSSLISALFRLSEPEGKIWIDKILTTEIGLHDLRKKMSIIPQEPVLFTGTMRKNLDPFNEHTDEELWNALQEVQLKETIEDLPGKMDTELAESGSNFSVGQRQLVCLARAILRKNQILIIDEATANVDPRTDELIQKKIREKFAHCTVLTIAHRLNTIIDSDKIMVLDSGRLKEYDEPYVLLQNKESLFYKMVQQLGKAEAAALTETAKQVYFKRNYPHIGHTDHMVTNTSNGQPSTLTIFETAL

[29] = molecular target: T2, Solute carrier organic anion transporter family member 1B1 (Homo sapiens, UniProt Q9Y6L6); test: Inhibition of human OATP1B1 in HEK293 cells; assay type: cell-based
T2 sequence (Q9Y6L6 whole entry): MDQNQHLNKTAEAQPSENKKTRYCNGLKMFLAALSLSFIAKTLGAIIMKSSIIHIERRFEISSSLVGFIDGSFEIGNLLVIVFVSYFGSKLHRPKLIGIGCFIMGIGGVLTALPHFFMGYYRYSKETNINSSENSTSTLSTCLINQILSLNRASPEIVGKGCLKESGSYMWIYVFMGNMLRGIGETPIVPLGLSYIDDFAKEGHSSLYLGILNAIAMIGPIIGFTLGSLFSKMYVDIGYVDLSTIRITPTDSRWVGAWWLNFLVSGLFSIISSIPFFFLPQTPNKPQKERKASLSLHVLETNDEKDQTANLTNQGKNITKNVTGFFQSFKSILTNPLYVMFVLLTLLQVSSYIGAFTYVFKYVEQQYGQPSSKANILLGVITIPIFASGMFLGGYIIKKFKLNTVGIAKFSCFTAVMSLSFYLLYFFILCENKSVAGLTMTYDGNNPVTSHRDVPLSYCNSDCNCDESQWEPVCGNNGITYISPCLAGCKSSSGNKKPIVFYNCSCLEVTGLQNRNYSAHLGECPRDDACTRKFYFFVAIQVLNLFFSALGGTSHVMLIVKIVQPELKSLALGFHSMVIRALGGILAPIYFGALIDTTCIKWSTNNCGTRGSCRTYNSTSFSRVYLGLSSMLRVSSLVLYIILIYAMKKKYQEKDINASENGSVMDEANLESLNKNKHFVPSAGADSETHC

[30] = molecular target: T3, Solute carrier organic anion transporter family member 1B3 (Homo sapiens, UniProt Q9NPD5); test: Inhibition of human OATP1B3 in HEK293 cells; assay type: cell-based
T3 sequence (Q9NPD5 whole entry): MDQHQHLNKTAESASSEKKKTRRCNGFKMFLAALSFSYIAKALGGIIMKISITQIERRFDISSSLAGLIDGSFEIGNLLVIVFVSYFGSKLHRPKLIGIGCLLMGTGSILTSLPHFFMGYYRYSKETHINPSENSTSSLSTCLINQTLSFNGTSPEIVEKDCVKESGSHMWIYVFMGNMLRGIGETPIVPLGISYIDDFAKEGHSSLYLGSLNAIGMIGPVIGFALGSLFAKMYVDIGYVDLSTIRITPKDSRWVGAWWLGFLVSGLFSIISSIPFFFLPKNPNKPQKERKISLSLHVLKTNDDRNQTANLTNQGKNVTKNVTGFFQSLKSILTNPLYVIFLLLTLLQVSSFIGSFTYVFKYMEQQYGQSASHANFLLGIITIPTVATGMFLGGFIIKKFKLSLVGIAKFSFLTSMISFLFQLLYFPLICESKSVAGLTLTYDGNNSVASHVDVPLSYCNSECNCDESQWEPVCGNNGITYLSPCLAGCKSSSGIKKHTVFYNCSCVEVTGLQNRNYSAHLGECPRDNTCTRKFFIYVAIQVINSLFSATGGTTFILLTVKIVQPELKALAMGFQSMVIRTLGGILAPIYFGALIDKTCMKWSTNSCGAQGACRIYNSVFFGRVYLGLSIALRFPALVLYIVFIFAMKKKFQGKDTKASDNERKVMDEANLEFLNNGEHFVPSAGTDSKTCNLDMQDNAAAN

[31] = system: Mus musculus; test: Antifibrotic activity against bleomycin-induced lung fibrosis in male C57Bl/6 mouse model assessed as reduction in ashcroft score at 50 mg/kg, po bid administered from day 7 to 21 relative to control; assay type: functional; parameters: scale not given: the % may be the effect or the level left; conditions: time 15 day

Sequence of Bile salt export pump (O95342 whole entry): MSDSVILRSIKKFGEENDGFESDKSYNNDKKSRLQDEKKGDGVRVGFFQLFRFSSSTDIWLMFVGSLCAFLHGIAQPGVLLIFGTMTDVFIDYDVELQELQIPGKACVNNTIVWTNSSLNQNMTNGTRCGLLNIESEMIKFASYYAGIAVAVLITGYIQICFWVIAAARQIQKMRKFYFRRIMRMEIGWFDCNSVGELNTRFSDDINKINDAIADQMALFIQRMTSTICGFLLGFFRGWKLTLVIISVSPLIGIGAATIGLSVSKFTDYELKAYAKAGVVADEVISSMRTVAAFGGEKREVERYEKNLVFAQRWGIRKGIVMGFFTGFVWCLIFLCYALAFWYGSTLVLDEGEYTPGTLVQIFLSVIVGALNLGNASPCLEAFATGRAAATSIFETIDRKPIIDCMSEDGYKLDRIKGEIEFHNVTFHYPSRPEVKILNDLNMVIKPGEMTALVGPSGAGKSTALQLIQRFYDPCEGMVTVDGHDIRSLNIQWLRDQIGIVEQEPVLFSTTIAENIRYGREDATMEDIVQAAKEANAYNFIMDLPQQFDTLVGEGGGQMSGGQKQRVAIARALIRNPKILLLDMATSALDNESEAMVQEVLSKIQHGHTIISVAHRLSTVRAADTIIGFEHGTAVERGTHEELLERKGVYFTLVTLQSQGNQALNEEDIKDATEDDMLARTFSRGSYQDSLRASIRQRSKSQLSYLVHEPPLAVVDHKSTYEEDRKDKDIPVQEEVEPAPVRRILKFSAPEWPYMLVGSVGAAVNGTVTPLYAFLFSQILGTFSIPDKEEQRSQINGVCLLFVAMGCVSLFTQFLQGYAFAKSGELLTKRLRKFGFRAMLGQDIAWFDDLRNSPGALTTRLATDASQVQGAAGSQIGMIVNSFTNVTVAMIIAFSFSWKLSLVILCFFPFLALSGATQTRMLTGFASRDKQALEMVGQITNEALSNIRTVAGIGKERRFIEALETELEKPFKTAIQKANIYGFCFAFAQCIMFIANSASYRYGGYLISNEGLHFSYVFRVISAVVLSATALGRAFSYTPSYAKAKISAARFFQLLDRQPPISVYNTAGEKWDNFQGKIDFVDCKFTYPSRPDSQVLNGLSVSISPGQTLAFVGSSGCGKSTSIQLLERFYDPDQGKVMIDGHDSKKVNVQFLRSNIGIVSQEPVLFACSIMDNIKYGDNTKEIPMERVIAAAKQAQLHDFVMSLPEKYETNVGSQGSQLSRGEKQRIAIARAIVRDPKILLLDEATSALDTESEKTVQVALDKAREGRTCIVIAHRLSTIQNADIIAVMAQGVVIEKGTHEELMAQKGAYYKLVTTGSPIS
Sequence of ATP-binding cassette sub-family C member 2 (Q92887 whole entry): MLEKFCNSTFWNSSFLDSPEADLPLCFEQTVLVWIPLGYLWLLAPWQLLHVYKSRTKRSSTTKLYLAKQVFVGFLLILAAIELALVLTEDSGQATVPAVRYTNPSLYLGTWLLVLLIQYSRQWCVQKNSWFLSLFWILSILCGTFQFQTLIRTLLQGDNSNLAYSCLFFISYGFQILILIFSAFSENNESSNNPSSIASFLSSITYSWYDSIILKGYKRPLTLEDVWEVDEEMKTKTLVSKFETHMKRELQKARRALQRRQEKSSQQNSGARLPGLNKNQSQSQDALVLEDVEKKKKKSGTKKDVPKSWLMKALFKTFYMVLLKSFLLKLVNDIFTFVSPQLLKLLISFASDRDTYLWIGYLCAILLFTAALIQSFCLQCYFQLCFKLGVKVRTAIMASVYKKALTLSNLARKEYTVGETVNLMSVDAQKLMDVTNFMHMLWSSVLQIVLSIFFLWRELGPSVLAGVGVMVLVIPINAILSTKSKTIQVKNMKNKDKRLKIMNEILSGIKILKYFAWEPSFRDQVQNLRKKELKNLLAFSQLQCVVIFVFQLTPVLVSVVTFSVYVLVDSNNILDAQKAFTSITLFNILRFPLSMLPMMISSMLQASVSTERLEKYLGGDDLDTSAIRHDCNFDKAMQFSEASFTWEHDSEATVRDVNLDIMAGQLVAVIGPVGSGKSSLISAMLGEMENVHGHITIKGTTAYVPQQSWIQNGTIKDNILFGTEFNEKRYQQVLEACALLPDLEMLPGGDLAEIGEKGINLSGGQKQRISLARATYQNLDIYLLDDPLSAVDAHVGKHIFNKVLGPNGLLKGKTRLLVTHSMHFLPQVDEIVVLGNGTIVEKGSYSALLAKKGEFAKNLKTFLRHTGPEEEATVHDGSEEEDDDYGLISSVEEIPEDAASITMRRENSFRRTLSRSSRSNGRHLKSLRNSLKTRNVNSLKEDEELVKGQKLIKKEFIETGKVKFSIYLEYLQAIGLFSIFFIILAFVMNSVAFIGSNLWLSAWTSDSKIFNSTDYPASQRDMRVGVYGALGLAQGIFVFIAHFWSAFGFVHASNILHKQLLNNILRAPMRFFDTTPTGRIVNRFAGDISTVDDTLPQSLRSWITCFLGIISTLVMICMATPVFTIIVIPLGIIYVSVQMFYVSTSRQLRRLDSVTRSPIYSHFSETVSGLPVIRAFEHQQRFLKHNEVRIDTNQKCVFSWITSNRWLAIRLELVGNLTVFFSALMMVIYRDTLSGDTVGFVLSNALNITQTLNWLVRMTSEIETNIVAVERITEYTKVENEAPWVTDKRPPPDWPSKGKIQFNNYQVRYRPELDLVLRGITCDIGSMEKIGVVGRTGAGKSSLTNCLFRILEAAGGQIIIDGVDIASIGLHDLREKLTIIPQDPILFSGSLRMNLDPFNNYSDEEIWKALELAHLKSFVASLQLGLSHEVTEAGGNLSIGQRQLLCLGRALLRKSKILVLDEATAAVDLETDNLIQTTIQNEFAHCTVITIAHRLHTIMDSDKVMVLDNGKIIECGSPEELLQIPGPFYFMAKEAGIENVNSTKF
Sequence of BSEP (O95342 whole entry): as the sequence (O95342 whole entry) above
Sequence of Phosphatidylcholine translocator ABCB4 (P21439 whole entry): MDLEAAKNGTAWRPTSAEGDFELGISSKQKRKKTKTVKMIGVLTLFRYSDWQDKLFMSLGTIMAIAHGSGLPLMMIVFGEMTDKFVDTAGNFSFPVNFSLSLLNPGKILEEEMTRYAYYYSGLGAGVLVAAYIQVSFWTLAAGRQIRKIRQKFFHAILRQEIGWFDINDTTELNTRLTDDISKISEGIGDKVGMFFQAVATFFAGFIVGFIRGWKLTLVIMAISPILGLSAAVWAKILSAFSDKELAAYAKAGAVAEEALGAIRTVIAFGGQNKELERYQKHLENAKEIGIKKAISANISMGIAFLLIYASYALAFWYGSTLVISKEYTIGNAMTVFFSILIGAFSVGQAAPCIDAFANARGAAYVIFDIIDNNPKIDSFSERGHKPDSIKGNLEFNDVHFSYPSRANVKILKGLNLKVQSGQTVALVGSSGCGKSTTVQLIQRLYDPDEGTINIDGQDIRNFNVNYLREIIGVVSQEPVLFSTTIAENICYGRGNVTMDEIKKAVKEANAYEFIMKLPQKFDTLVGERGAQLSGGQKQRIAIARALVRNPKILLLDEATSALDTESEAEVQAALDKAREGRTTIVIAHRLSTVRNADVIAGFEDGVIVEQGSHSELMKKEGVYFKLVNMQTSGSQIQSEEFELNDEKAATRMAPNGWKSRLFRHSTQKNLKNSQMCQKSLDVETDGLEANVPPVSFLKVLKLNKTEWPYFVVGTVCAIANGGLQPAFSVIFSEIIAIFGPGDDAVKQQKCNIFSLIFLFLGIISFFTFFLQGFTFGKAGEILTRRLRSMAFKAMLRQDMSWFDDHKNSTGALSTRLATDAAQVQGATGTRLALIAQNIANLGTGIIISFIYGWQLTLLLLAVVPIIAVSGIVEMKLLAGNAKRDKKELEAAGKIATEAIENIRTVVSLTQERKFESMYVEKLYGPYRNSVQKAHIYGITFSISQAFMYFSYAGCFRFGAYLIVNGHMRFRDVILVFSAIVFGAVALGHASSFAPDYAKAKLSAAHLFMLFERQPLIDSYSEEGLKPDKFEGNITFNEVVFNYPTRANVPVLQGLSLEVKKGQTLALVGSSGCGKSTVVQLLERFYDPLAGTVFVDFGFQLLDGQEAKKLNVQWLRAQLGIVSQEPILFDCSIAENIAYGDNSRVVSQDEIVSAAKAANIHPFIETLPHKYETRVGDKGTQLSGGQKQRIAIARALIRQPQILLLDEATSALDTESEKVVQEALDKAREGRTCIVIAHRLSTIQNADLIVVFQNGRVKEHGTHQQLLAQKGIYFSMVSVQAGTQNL
Sequence of Lysophosphatidic acid receptor 1 (Mus musculus, UniProt P61793) (P61793 whole entry): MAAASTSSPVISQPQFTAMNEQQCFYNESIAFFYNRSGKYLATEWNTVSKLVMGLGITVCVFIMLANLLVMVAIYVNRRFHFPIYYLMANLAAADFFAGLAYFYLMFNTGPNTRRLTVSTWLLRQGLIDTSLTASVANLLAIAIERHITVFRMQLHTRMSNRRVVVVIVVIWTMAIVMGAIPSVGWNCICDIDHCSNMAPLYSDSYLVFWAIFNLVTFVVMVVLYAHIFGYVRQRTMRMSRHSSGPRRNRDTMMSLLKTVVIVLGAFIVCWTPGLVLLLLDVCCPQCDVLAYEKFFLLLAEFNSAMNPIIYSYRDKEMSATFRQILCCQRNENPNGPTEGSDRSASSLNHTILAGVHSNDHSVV
Sequence of Lysophosphatidic acid receptor 1 (Homo sapiens, UniProt Q92633) (Q92633 whole entry): as the sequence (P61793 whole entry) above, with A4I, S8I, Q22P, Y40H, V61I, D193E, H194N, V269I, N331S, N335T counted along it

pIC50 [1]: 7.50 | chromatographic logD [2]: 1.18 | microsomal CLint at 0.5 µM [3]: 2.7 µL/min/mg | microsomal CLint at 0.5 µM [4]: 0.4 µL/min/mg | pIC50 [6]: 7.80 | solubility [7]: 318 µM (≈ 172 µg/mL) | clearance [11]: 17.1 mL/min/kg | Vd [12]: 2.1 L/kg | bioavailability [13]: 22% | half-life [14]: 4.19 h | Cmax [15]: 3930 ng/mL | fCmax [16]: 251 ng/mL | AUClast [17]: 6720 h/ng/mL | fAUClast [18]: 430 h/ng/mL | Tlast [19]: 8 h | Cmax [20]: 2620 ng/mL | fCmax [21]: 167 ng/mL | AUClast [22]: 4040 h/ng/mL | fAUClast [23]: 257 h/ng/mL | Tlast [24]: 24 h
SMILES: Cc1nc(-c2nnn(C)c2NC(=O)O[C@H](C)c2ccccc2Cl)ccc1NC(=O)[C@H]1CCCC[C@@H]1C(=O)O
inhibition at 50 µM [5]: 16% | pIC50 [8]: < 4.00 | ED50 [9]: 0.1 mg/kg | IC50 [10]: 37.2 nM

pIC50 [25]: 5.10 | pIC50 [26]: 4.30 | pIC50 [27]: 4.70 | pIC50 [28]: 5.20 | pIC50 [29]: 6.80 | pIC50 [30]: 6.20
SMILES: Cc1noc(-c2ccc(-c3ccc(C4(C(=O)O)CC4)cc3)cc2)c1NC(=O)O[C@H](C)c1ccccc1 [BMS-986020]
pIC50 [8]: 5.70

SMILES: COC(=O)c1ccc2c(c1)NC(=O)/C2=C(\Nc1ccc(N(C)C(=O)CN2CCN(C)CC2)cc1)c1ccccc1 [NINTEDANIB]
Activity [31]: 23%
